# Source: ChEMBL document CHEMBL1139650, “In silico fragment-based discovery of DPP-IV S1 pocket binders” (Bioorg Med Chem Lett, 2006)
# Target: Dipeptidyl peptidase 4 (Homo sapiens, UniProt P27487)
# Assay: Inhibition of DPP4
# Sequence of Dipeptidyl peptidase 4 (P27487 whole entry): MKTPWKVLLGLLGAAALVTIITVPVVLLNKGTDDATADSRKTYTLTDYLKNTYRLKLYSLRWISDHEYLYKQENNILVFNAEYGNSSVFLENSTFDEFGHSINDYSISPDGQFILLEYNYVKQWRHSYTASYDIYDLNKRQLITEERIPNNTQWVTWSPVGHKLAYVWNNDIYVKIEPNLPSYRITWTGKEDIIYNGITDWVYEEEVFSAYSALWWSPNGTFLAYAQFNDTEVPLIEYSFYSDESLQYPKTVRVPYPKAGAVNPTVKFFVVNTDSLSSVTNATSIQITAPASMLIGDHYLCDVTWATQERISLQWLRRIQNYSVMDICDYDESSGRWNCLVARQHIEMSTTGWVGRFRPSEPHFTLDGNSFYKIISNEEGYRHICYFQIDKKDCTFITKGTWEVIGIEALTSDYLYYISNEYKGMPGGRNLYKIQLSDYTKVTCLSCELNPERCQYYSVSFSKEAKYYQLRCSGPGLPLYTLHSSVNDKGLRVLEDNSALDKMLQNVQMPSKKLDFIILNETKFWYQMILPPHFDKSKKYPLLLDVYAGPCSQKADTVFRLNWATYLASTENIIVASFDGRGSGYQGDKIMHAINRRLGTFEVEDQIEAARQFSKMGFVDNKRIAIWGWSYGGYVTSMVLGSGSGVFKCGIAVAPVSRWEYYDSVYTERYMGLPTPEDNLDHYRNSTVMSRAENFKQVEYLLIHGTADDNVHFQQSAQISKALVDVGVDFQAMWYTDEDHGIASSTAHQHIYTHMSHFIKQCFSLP
row,SMILES,IC50 [µM]
1,N[C@H](c1ccccc1)[C@@H](N)c1ccccc1,75
2,N[C@H](c1ccccc1)[C@H](N)c1ccccc1,45
